Test results published in patent US12692238B2, “Substituted pyridazinone herbicides” (FMC CORPORATION, priority 2020, dated 2026).
Read-outs that look alike come from different tables or passages of the source.

What was measured:
Format in all cases: in vivo
[1] = tested on: ragweed (common ragweed, Ambrosia artemisiifolia); assay: Test A postemergence, ragweed; conditions: Ambrosia artemisiifolia, post-emergence, 240 h, 10 days, read-out: Plant response rating, Ragweed; for pest or weed control at 31 g/ha: 31 g ai/ha, postemergence, 0 to 100 scale (0 no effect, 100 complete control); for pest or weed control at 125 g/ha: Postemergence, 125 g ai/ha, 0 to 100 scale
Outline: (§1)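 Visual injury rating on a 0–100 scale (100 = complete control) versus untreated plants after 10 days in greenhouse. Treatments: directed soil spray preemergence after sowing in loam/sand, or postemergence on one- to two-leaf plants 2–10 cm high; surfactant-containing non-phytotoxic solvent formulation.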

[2] = tested on: soybean (Glycine max); assay: Test A preemergence, soybean; conditions: 0 to 100 scale, 10 days
Outline: as §1

[3] = tested on: oat, wild (wild oat, Avena fatua); assay: Test A preemergence, oat, wild; conditions: 0 to 100 scale, 10 days
Outline: as §1

[4] = tested on: wheat (Triticum aestivum); assay: Test A preemergence, wheat; conditions: 125 g ai/ha, 0 to 100 scale, 10 days
[5] = tested on: horseweed (Erigeron canadensis); assay: Test A postemergence, horseweed; conditions: 10 days
Outline: as §1

[6] = tested on: goosegrass (Eleusine indica); assay: Test A postemergence, goosegrass; conditions: 10 days
Outline: as §1

[7] = tested on: blackgrass (Alopecurus myosuroides); assay: Test A postemergence, blackgrass; conditions: Alopecurus myosuroides, post-emergence, 240 h, 10 days, read-out: Plant response rating, Blackgrass; for pest or weed control at 31 g/ha: 31 g ai/ha; for pest or weed control at 125 g/ha: 125 g ai/ha
Outline: as §1

[8] = tested on: blackgrass (Alopecurus myosuroides); assay: Test A preemergence, blackgrass; conditions: 0 to 100 scale, 10 days
Outline: as §1

[9] = tested on: corn (Zea mays); assay: Test A postemergence, corn; conditions: Zea mays, post-emergence, 240 h, 10 days; for Corn plant response rating (crop injury, 0 = no effect, 100 = complete kill) at 31 g/ha: 31 g ai/ha; for Corn plant response rating (crop injury, 0 = no effect, 100 = complete kill) at 125 g/ha: 125 g ai/ha
Outline: as §1

[10] = tested on: soybean (Glycine max); assay: Test A postemergence, soybean; conditions: 10 days
Outline: as §1

[11] = tested on: corn (Zea mays); assay: Test A preemergence, corn; conditions: 0 to 100 scale, 10 days
Outline: as §1

[12] = tested on: palmer amaranth (pigweed, palmer, Amaranthus palmeri); assay: Test A preemergence, palmer amaranth; conditions: 0 to 100 scale, 10 days
Outline: as §1

[13] = tested on: oat, wild (wild oat, Avena fatua); assay: Test A postemergence, oat, wild; conditions: 10 days
Outline: as §1

[14] = tested on: palmer amaranth (pigweed, palmer, Amaranthus palmeri); assay: Test A postemergence, palmer amaranth; conditions: 10 days
Outline: as §1

[15] = tested on: sedge, umbrella (small-flower umbrella sedge, Cyperus difformis); assay: Test B flooded paddy test, sedge, umbrella; conditions: Cyperus difformis; 250 g ai/ha, Flood; visually evaluated after 10 to 14 days; read-out: Plant response rating, Sedge, Umbrella (0 to 100 scale where 0 is no effect and 100 is complete control)
Outline: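 Application into floodwater (3 cm over soil) at the 2-leaf stage, with the depth held constant, followed by greenhouse growth for 10–14 days. Percent control was estimated visually versus controls, where 100 is complete control.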

[16] = tested on: goosegrass (Eleusine indica); assay: Test A preemergence, goosegrass; conditions: 0 to 100 scale, 10 days
Outline: as §1

[17] = 31 g ai/ha, postemergence, 0 to 100 scale (0 no effect, 100 complete control)
[18] = Postemergence, 125 g ai/ha, 0 to 100 scale
[19] = postemergence, 0 to 100 scale (0 no effect, 100 complete control)

Structure (SMILES)	pest or weed control at 31 g/ha [1]	pest or weed control at 125 g/ha [1]	Plant response rating, Soybean ([2]; 31 g ai/ha)	Plant response rating, Soybean ([2]; 125 g ai/ha)	Plant response rating, Oat, Wild ([3]; 31 g ai/ha)	Plant response rating, Oat, Wild ([3]; 125 g ai/ha)	Plant response rating, Wheat [4]	Plant response rating, Horseweed [5, 17]	Plant response rating, Horseweed [5, 18]	Plant response rating, Goosegrass [6, 17]	Plant response rating, Goosegrass [6, 18]	pest or weed control at 125 g/ha ([7]; Postemergence, 0 to 100 scale)	Plant response rating, Blackgrass ([8]; 31 g ai/ha)	Plant response rating, Blackgrass ([8]; 125 g ai/ha)	Corn plant response rating (crop injury, 0 = no effect, 100 = complete kill) at 125 g/ha ([9]; Postemergence, 0 to 100 scale)	Plant response rating, Soybean [10, 17]	Plant response rating, Soybean [10, 18]	Plant response rating, Corn ([11]; 31 g ai/ha)	Plant response rating, Corn ([11]; 125 g ai/ha)	Plant response rating, Pigweed, Palmer ([12]; 31 g ai/ha)	other results
COC(=O)OCOc1c(Cl)nn(C)c(=O)c1-c1c2cc(C)ccc2cc2ccc(C)cc12 [Compound 8, [[3-chloro-5-(2,7-dimethyl-9-anthracenyl)-1,6-dihydro-1-methyl-6-oxo-4-pyridazinyl]oxy]methyl methyl carbonate]	100%	100%	0	0	0	0	0	100	100	0	0	0%	0	0	20%	40	60	0	60	100	pest or weed control at 31 g/ha ([7]; Postemergence, 0 to 100 scale): 0%; Corn plant response rating (crop injury, 0 = no effect, 100 = complete kill) at 31 g/ha ([9]; Postemergence, 0 to 100 scale): 0%; Plant response rating, Pigweed, Palmer ([12]; 125 g ai/ha): 100; Plant response rating, Oat, Wild [13, 17]: 0; Plant response rating, Oat, Wild [13, 18]: 10; Plant response rating, Pigweed, Palmer [14, 17]: 70; Plant response rating, Pigweed, Palmer [14, 18]: 100; pest or weed control at 250 g/ha [15]: 95%; Plant response rating, Goosegrass ([16]; 31 g ai/ha): 0; Plant response rating, Goosegrass ([16]; 125 g ai/ha): 0
Cc1ccc2cc3ccc(C)cc3c(-c3c(OCOC(=O)C(C)(C)C)c(Cl)nn(C)c3=O)c2c1 [Compound 9, [[3-chloro-5-(2,7-dimethyl-9-anthracenyl)-1,6-dihydro-1-methyl-6-oxo-4-pyridazinyl]oxy]methyl 2,2-dimethylpropanoate]	80%	100%	0	0	0	0	0	100	100	30	30	0%	0	0	20%	40	60	0	0	40	pest or weed control at 31 g/ha ([7]; Postemergence, 0 to 100 scale): 0%; Corn plant response rating (crop injury, 0 = no effect, 100 = complete kill) at 31 g/ha ([9]; Postemergence, 0 to 100 scale): 0%; Plant response rating, Pigweed, Palmer ([12]; 125 g ai/ha): 100; Plant response rating, Oat, Wild [13, 17]: 0; Plant response rating, Oat, Wild [13, 18]: 0; Plant response rating, Pigweed, Palmer [14, 17]: 80; Plant response rating, Pigweed, Palmer [14, 18]: 80; pest or weed control at 250 g/ha [15]: 100%; Plant response rating, Goosegrass ([16]; 31 g ai/ha): 10; Plant response rating, Goosegrass ([16]; 125 g ai/ha): 10
COC(=O)OCOc1c(C)nn(C)c(=O)c1-c1c2cc(C)ccc2cc2ccc(F)cc12 [Compound 15, [[5-(2-fluoro-7-methyl-9-anthracenyl)-1,6-dihydro-1,3-dimethyl-6-oxo-4-pyridazinyl]oxy]methyl methyl carbonate]	100%	100%	0	10	20	20	0	100	100	30	60	10%	30	10	50%	80	90	0	30	100	pest or weed control at 31 g/ha [7, 19]: 0%; Corn plant response rating (crop injury, 0 = no effect, 100 = complete kill) at 31 g/ha [9, 19]: 0%; Plant response rating, Pigweed, Palmer ([12]; 125 g ai/ha): 100; Plant response rating, Oat, Wild [13, 17]: 20; Plant response rating, Oat, Wild [13, 18]: 40; Plant response rating, Pigweed, Palmer [14, 17]: 100; Plant response rating, Pigweed, Palmer [14, 18]: 100; pest or weed control at 250 g/ha [15]: 90%; Plant response rating, Goosegrass ([16]; 31 g ai/ha): 50; Plant response rating, Goosegrass ([16]; 125 g ai/ha): 90
